Here are results for 18 molecules from patent publication US20230019491A1, “PYRIMIDINE TBK/IKKe INHIBITOR COMPOUNDS AND USES THEREOF” (Merck Patent GmbH, priority 2017, published 2023).

Assay [1] has as its target T1, TBK1 (Homo sapiens, UniProt Q9UHD2).
T1 sequence (Q9UHD2 1-729): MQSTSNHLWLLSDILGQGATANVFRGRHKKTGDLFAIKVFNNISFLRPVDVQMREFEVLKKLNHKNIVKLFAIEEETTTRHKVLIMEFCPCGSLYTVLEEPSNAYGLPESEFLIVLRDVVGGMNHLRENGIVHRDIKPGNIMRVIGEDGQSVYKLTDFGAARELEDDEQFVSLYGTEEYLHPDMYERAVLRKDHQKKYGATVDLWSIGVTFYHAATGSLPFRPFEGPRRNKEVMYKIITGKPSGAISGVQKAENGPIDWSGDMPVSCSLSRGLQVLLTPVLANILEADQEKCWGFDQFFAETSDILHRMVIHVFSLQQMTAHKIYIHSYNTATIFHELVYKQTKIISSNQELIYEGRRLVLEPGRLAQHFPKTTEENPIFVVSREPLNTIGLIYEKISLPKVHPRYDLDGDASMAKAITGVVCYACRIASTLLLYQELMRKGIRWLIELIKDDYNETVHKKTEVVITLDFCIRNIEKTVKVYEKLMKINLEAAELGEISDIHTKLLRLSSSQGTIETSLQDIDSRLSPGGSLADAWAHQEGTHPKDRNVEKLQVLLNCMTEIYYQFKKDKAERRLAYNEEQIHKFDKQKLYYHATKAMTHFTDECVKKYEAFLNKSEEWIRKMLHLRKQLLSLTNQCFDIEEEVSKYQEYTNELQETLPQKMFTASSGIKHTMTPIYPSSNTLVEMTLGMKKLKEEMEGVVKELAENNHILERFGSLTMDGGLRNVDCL
The assay is described as follows: TBK biochemical assay. Conditions: 10 point 1:4 dose response, 30 uM top concentration, 90 min at 25° C., LabChip EZ Reader II; read-out: TBK1_IC50. The method, boiled down: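 Read-out was a Caliper LabChip mobility-shift assay, run after a 90-min, 25 °C reaction of TBK1 with substrate and compounds, quenched with stop buffer. Control wells received staurosporine at 10 uM final.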

In assay [2] the target is T2, IKKε (Homo sapiens, UniProt Q14164).
T2 sequence (Q14164 1-716): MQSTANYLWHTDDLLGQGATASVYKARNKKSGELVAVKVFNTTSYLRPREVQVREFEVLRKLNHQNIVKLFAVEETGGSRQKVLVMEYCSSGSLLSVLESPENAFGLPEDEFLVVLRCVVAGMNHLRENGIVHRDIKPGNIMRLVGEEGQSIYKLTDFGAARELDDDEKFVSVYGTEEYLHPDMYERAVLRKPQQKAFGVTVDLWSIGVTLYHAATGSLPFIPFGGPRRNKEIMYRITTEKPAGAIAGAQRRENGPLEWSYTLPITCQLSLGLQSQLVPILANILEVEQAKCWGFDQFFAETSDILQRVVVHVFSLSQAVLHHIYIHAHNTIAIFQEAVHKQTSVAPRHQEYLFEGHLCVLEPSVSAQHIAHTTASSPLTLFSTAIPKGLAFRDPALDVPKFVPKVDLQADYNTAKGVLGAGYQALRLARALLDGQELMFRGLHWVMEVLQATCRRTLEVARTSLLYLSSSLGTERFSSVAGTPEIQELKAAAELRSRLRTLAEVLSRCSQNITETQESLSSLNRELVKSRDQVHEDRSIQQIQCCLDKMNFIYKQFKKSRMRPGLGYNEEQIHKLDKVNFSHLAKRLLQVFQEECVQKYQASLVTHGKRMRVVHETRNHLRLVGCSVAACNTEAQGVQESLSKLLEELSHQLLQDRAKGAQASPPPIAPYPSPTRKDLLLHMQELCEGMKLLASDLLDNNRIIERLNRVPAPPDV
The assay is described as follows: IKKε biochemical assay. As to conditions: 10 point 1:4 dose response, 30 uM top concentration, 90 min at 25° C., LabChip EZ Reader II; read-out: IKKε_IC50. In outline: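 Mobility-shift LabChip read-out followed a 90 min, 25° C. reaction of IKKε with substrate and test compound, with DMSO held at 1% final. Reactions were ended with stop buffer. Wells with 10 uM final staurosporine defined complete inhibition, and DMSO-only wells the uninhibited level.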

Consider `COc1nc(Nc2nccc(-c3ccc(OC4CCNCC4(F)F)c(C#N)c3)n2)ccc1C(=O)N(C)C` (stereo not drawn) [Example 76, 6-[(4-[3-cyano-4-[(3,3-difluoropiperidin-4-yl)oxy]phenyl]pyrimidin-2-yl)amino]-2-methoxy-N,N-dimethylpyridine-3-carboxamide], for which the IC50 in assay [1] and in assay [2] was less than 0.1 µM in each case.
Consider `CC(O)C(=O)N1CC[C@H](Oc2ccc(-c3nc(Nc4ccc(N5CCN(C6COC6)CC5)cc4)ncc3F)cc2C#N)[C@H](F)C1` (stereo partly drawn) [Example 295, 2-{[(3R,4S)-3-fluoro-1-(2-hydroxypropanoyl)piperidin-4-yl]oxy}-5-[5-fluoro-2-({4-[4-(oxetan-3-yl)piperazin-1-yl]phenyl}amino)pyrimidin-4-yl]benzonitrile], for which the IC50 in assay [1] and in assay [2] was less than 0.1 µM in each case.
Turning to `COc1cc(Nc2nccc(-c3ccc(OC4CCOCC4)c(C#N)n3)n2)cnc1C(=O)N(C)C` [Example 25, 5-([4-[6-cyano-5-(oxan-4-yloxy)pyridin-2-yl]pyrimidin-2-yl]amino)-3-methoxy-N,N-dimethylpyridine-2-carboxamide], the IC50 in assay [1] and in assay [2] was less than 0.1 µM throughout.
Turning to `COc1nc(Nc2nccc(-c3ccc(O[C@H]4CCN(C(=O)CO)CC4(F)F)c(C#N)c3)n2)ccc1N1CCN(C)CC1` [Example 100, 2-[[(4S)-3,3-difluoro-1-(2-hydroxyacetyl)piperidin-4-yl]oxy]-5-(2-[[6-methoxy-5-(4-methylpiperazin-1-yl)pyridin-2-yl]amino]pyrimidin-4-yl)benzonitrile], the IC50 in assay [1] and in assay [2] was less than 0.1 µM each time.
For the molecule `COc1nc(Nc2ncc(F)c(-c3ccc(OC4CCN(C(=O)CO)CC4(F)F)c(C#N)c3)n2)ccc1N1CCN(C2COC2)CC1` (stereo not drawn) [Example 290, 2-{[3,3-difluoro-1-(2-hydroxyacetyl)piperidin-4-yl]oxy}-5-[5-fluoro-2-({6-methoxy-5-[4-(oxetan-3-yl)piperazin-1-yl]pyridin-2-yl}amino)pyrimidin-4-yl]benzonitrile], the IC50 in assay [1] and in assay [2] was less than 0.1 µM in each case.
`COc1cc(Nc2nccc(-c3ccc(OC4CCOCC4)c(C#N)c3)n2)ncc1C(=O)N(C)C` [Example 49, 6-([4-[3-cyano-4-(oxan-4-yloxy)phenyl]pyrimidin-2-yl]amino)-4-methoxy-N,N-dimethylpyridine-3-carboxamide]: the IC50 in assay [1] and in assay [2] was 0.1 to 1 µM throughout.
In the case of `N#Cc1cc(-c2ccnc(Nc3ccc(N4CCN(C5COC5)CC4)cc3)n2)ccc1OC1CCNCC1(F)F` (stereo not drawn) [Example 136, 2-[(3,3-difluoropiperidin-4-yl)oxy]-5-[2-([4-[4-(oxetan-3-yl)piperazin-1-yl]phenyl]amino)pyrimidin-4-yl]benzonitrile], the IC50 in assay [1] and in assay [2] was less than 0.1 µM in each case.
With `COc1nc(C(=O)N(C)C)ccc1Nc1nccc(-c2ccc(OC3CCOCC3)c(C#N)c2)n1` [Example 48, 5-([4-[3-cyano-4-(oxan-4-yloxy)phenyl]pyrimidin-2-yl]amino)-6-methoxy-N,N-dimethylpyridine-2-carboxamide], the IC50 in assay [1] and in assay [2] was less than 0.1 µM in each case.
`COc1nc(Nc2nccc(-c3ccc(OC4CCN(C(=O)[C@H](C)O)CC4(F)F)c(C#N)c3)n2)ccc1N1CCN(C2COC2)[C@H](C)C1` (stereo partly drawn) [Example 128, 2-[3,3-Difluoro-1-((S)-2-hydroxy-propionyl)-piperidin-4-yloxy]-5-{2-[6-methoxy-5-((R)-3-methyl-4-oxetan-3-yl-piperazin-1-yl)-pyridin-2-ylamino]-pyrimidin-4-yl}-benzonitrile]: the IC50 in assay [1] and in assay [2] was less than 0.1 µM throughout.
For `COc1nc(Nc2nccc(-c3ccc(OC4CCN(C(=O)c5cnco5)CC4)c(C#N)c3)n2)ccc1N1CCN(C)CC1` [Example 92, 5-(2-[[6-methoxy-5-(4-methylpiperazin-1-yl)pyridin-2-yl]amino]pyrimidin-4-yl)-2-([1-[(1,3-oxazol-5-yl)carbonyl]piperidin-4-yl]oxy)benzonitrile], the IC50 in assay [1] and in assay [2] was less than 0.1 µM each time.
On to `COc1nc(Nc2nccc(-c3ccc(O[C@H]4CCN(C(=O)[C@H](C)O)C[C@H]4F)c(C#N)c3)n2)ccc1N1CCN(C)CC1` [Example 201, 2-[[(3R,4S)-3-fluoro-1-[(2S)-2-hydroxypropanoyl]piperidin-4-yl]oxy]-5-(2-[[6-methoxy-5-(4-methylpiperazin-1-yl)pyridin-2-yl]amino]pyrimidin-4-yl)benzonitrile], for which the IC50 in assay [1] and in assay [2] was less than 0.1 µM in each case.
`N#Cc1cc(-c2ccnc(Nc3ccc(N4CCN(C5COC5)CC4)cn3)n2)ccc1OC1CCOCC1` [Example 165, 5-{2-[5-(4-Oxetan-3-yl-piperazin-1-yl)-pyridin-2-ylamino]-pyrimidin-4-yl}-2-(tetrahydro-pyran-4-yloxy)-benzonitrile]: the IC50 in assay [1] and in assay [2] was less than 0.1 µM each time.
For `COc1nc(Nc2nccc(-c3ccc(OC4CCN(C(=O)[C@H](C)O)CC4(F)F)c(C#N)c3)n2)ccc1N1CCN(C2COC2)[C@@H](C)C1` (stereo partly drawn) [Example 127, 2-[3,3-Difluoro-1-((S)-2-hydroxy-propionyl)-piperidin-4-yloxy]-5-{2-[6-methoxy-5-((S)-3-methyl-4-oxetan-3-yl-piperazin-1-yl)-pyridin-2-ylamino]-pyrimidin-4-yl}-benzonitrile], the IC50 in assay [1] and in assay [2] was less than 0.1 µM throughout.
With `COc1nc(Nc2nccc(-c3ccc(OC4CCN(C(=O)C(C)O)CC4(F)F)c(C#N)c3)n2)ccc1C1CCN(C)CC1` (stereo not drawn) [Example 146, 2-[[3,3-difluoro-1-(2-hydroxypropanoyl)piperidin-4-yl]oxy]-5-(2-[[6-methoxy-5-(1-methylpiperidin-4-yl)pyridin-2-yl]amino]pyrimidin-4-yl)benzonitrile], the IC50 in assay [1] and in assay [2] was less than 0.1 µM each time.
On to `COc1nc(Nc2nccc(-c3ccc(OC4CCN(C(=O)[C@@H]5CCCO5)CC4(F)F)c(C#N)c3)n2)ccc1N1CCN(C2COC2)CC1` (stereo partly drawn) [Example 254, 2-[3,3-Difluoro-1-((S)-tetrahydro-furan-2-carbonyl)-piperidin-4-yloxy]-5-{2-[6-methoxy-5-(4-oxetan-3-yl-piperazin-1-yl)-pyridin-2-ylamino]-pyrimidin-4-yl}-benzonitrile], for which the IC50 in assay [1] and in assay [2] was less than 0.1 µM each time.
With `C[C@H](O)C(=O)N1CCC(Oc2ccc(-c3ccnc(Nc4ccccc4)n3)cc2C#N)C(F)(F)C1` (stereo partly drawn) [Example 209, 2-[3,3-Difluoro-1-((S)-2-hydroxy-propionyl)-piperidin-4-yloxy]-5-(2-phenylamino-pyrimidin-4-yl)-benzonitrile], the IC50 in assay [1] and in assay [2] was less than 0.1 µM each time.
Turning to `COc1nc(Nc2nccc(-c3ccc(OC4CCOCC4)c(C#N)c3)n2)ccc1C(=O)N1CCN(CCO)CC1` [Example 15, 5-(2-{5-[4-(2-Hydroxy-ethyl)-piperazine-1-carbonyl]-6-methoxy-pyridin-2-ylamino}-pyrimidin-4-yl)-2-(tetrahydro-pyran-4-yloxy)-benzonitrile], the IC50 in assay [1] and in assay [2] was less than 0.1 µM throughout.
Turning to `COc1cccc(Nc2nccc(-c3ccc(OC4CCN(C(=O)c5n[nH]c(C)n5)CC4)c(C#N)c3)n2)n1` [Example 218, 5-[2-[(6-methoxypyridin-2-yl)amino]pyrimidin-4-yl]-2-[[1-(5-methyl-1H-1,2,4-triazole-3-carbonyl)piperidin-4-yl]oxy]benzonitrile], the IC50 in assay [1] and in assay [2] was less than 0.1 µM throughout.
